In a melting point compilation (Tetko et al.; mined from patent text by program, amines drawn as free bases though some values may be those of a salt) one finds melting point data, which are given here for 89 compounds.

SMILES strings stand for the structures.

What is called melting point is the temperature, or range, at which the solid turns liquid.

In turn, `NC(=O)c1ccc(C(F)(F)F)c(N)c1` returned a melting point of 147 to 149 °C. The compound `CC(=O)C(=[N+]=[N-])S(=O)(=O)C(C)C` registered a melting point of 53 to 55 °C. `CS(=O)(=O)c1ccc(-c2nn(CCc3ccccc3)c(C(F)(F)F)c2-c2ccc(F)cc2)cc1` had a melting point of 132 to 135 °C. For the compound `CC(C)CCCSC1c2ccccc2C(=O)N1c1ccc2ccc(Cl)nc2n1` (centres undefined), the melting point came out at 141 °C.

On to `CCOC(=O)c1cn(-c2cccnc2)nc1Cl`, for which the melting point was in the range of 90 to 93 °C. `O=CC1=C(Cl)Nc2cc(Cl)c(F)cc2C1` yielded a melting point of 260 °C. As for `Cc1noc(NS(=O)(=O)c2ccccc2-c2ncccn2)c1C`, the figure is 160 to 162 °C; as for `CCOC(=O)c1c(-c2ccc(OC)c(OC)c2)c2cc(Cl)ccc2[nH]c1=O`, 209 to 210 °C; as for `Cc1ccccc1SCc1c(C(C)C)nc(C(C)C)c(CO)c1-c1ccc(F)cc1`, 140 to 141 °C. As for `O=C1c2nccc(Br)c2C(=O)c2c(-c3ccccc3NC(=O)C(F)(F)F)ccnc21`, the figure is 145 °C. As for `COc1ccc(C=CC(=O)Oc2cc3c(cc2OC)CC2c4cc(OC)c(OC)cc4CCN2C3)cc1OC` (centres undefined), the figure is 224 to 225 °C; as for `O=C(CNC(=O)c1ccccc1C(=O)O)Nc1ccc(C(=O)C[N+](=O)[O-])c(Cl)c1`, 206 to 209 °C; as for `Clc1ccc(C2=CCN(Cc3coc4ncccc34)CC2)cc1`, 116 °C. For the compound `COc1ccc(-c2ccc3cnc(Nc4ccc5c(c4)N(S(C)(=O)=O)CCC5)nn23)cn1`, the melting point was in the range of 202 to 203 °C.

As to `Cc1ccc(S(=O)(=O)Oc2n[nH]c(CO)c2C(C)(C)C)cc1`, the melting point was in the range of 62 to 65 °C.

In turn, `CCCc1c(OCc2nc(N)c3nccnc3n2)ccc(C(C)=O)c1O` showed a melting point of 178 to 180 °C. As for `CCC(NS(C)(=O)=O)c1ccc(Cl)c2nc3n(c12)CCCN3c1ccc(Cl)cc1Cl` (centres undefined), the figure is 125 to 126 °C; as for `Cc1nc2cc(OC3SCC(O)C(O)C3O)ccc2s1` (centres undefined), 210 to 211 °C; as for `COc1ccc(C(=O)Nc2ccccc2)cc1NC(=S)Nc1cccc(C)c1`, 168 to 171 °C. Take `COc1cc(Cc2n[nH]c3c2c(=O)n(-c2ccccc2)c2ncccc32)cc(OC)c1`: the melting point was in the range of 258 to 259 °C. As for `CSC(SC)(SC)C(O)c1ccc(-n2cccc2)cc1` (centres undefined), the figure is 101 to 103 °C; as for `Cc1cc(Br)cc2c(C(C)C)c[nH]c12`, 170 °C; as for `Cc1ccc2c(c1)c(Cl)c(C#N)c(=O)n2C`, 241 °C. For `CN1C(=O)C2(COc3cc4c(cc32)OCCO4)c2c(NS(C)(=O)=O)cccc21` (centres undefined), the melting point was in the range of 184 to 186 °C. As for `NC1=NC(c2ccncc2)(c2cccc(-c3cccnc3F)c2)C2=NCCCN12` (centres undefined), the figure is 125 to 131 °C; as for `COC(=O)n1cc(C=O)c(-c2ccc([N+](=O)[O-])o2)n1`, 187 to 189 °C.

In turn, `Cn1c(=O)ccc2cnc(N3CCC[C@H]3CO)nc21` yielded a melting point of 143 to 144 °C. `CC(C)(C)OC(=O)N1CCCCN1C(=O)OCc1ccccc1` gave a melting point of 71 to 72 °C. As for `O=C(O)c1cccc(-c2ccc3c(c2)N(c2cc(Cl)ccc2Cl)CC3)c1`, the figure is 219 to 220 °C; as for `CCOC(=O)c1c(Cl)c2sccc2[nH]c1=O`, 206 °C; as for `O=C(c1ccc(-c2ccccc2)cc1)C(Br)CCCl` (centres undefined), 85 to 88 °C. `COC(=O)c1cc(O)c2nc(C)n(C)c2c1` yielded a melting point of 286 °C. As for `CCCNc1nc(N)nc(N(CCC)c2ccc(OC)c(F)c2)n1`, the figure is 53 to 55 °C. As for `CC(=O)OC1C=CC2(C)C(=CCC3C2CCC2(C)C(C(C)CCCC(C)C)CCC32)C1` (centres undefined), the figure is 73 to 75 °C; as for `CNc1nc2ccc(CCc3nc4cc(OC)ccn4c3C)cc2o1`, 203 to 205 °C. As for `CCCc1cc(NC(=O)c2c(C)nn(C)c2C)c(C)c(-c2cc(CCC)c(C(C(F)(F)F)C(F)(F)F)cc2C)c1`, the figure is 128 to 131 °C. Turning to `O=[N+]([O-])c1cc(I)cc(CO)c1`, the melting point was in the range of 85.5 to 86.5 °C. As for `CN(C)C=C(C#N)C(=O)NCc1ccccc1`, the figure is 160 to 161 °C; as for `Cc1ccc(-c2ccc3c(c2)C=C(C(=O)Nc2ccc(CN4CCN(c5ncccn5)CC4)cc2)CC3)cc1`, 203 to 204 °C; as for `N#CSCCNc1cc(Cl)ccc1[N+](=O)[O-]`, 115 to 116 °C. As for `Cc1nc(N2CCc3ccccc3CC2)c(C#N)c(=O)n1CC#N`, the figure is greater than 200 °C; as for `CC1(C)C(C(=O)NO)N(S(=O)(=O)c2ccc(-c3ccc(Br)cc3)cc2)CCS1(=O)=O` (centres undefined), 190 to 191 °C. As for `CCOP(=O)(OCC)c1ccc(CNC(=O)C2=Cc3cc(C4CCCCC4)ccc3CC2)cc1`, the figure is 169 to 170 °C. The compound `NS(=O)(=O)c1ccc(SCCO)s1` displayed a melting point of 46.5 to 47.5 °C. As for `CC(C)(C)c1ccc(/C=N/OCc2ccc(C(=O)O)c(Br)c2)cc1`, the figure is 162 to 163 °C; as for `N#Cc1ccccc1N1CCN(Cc2nc3ccccc3[nH]2)CC1`, 236 to 237 °C.

The compound `COc1cc2ncnc(NC3=CC(=O)C(N4CCCCC4)=CC3=O)c2cc1OC` yielded a melting point of 226 to 227 °C. As for `CCCn1c(SC)nc2cc(Br)sc2c1=O`, the figure is 138 to 141 °C; as for `CN1Cc2c(c3cc(CCN4CCN(c5nsc6ccccc56)CC4)ccc3[nH]c2=O)C1`, 205 to 207 °C.

Consider `Nc1ncnc2sc(Cc3cccnc3)c(-c3ccc(NC(=O)Nc4cccc(Cl)c4)cc3)c12`, for which the melting point lay within 169 to 172 °C.

In the case of `CCOC(=O)C1C(=O)CC(=O)CC1c1ccccc1` (centres undefined), the melting point was in the range of 86 to 87 °C. As for `COC(=O)c1ccccc1S(=O)(=O)NC(=O)Nc1nc(CSc2ccccn2)cc(OC)n1`, the figure is 175 to 181 °C; as for `COCc1c(CNS(=O)(=O)c2cccc(Cl)c2)nn(-c2ccc(Cl)cc2Cl)c1-c1ccc(Cl)cc1`, 154 °C.

Compound `Cc1onc(C(=O)c2ccccc2)c1NC(=O)CCl` came in with a melting point of 86 to 88 °C. `COc1cccc(C2Nn3cc(-c4cc(-c5ccc(Cl)cc5Cl)no4)nc3S2)c1` (centres undefined) showed a melting point of 195 to 198 °C. `CS(=O)(=O)c1ccc(-c2cc(C(CCCO[N+](=O)[O-])=NO)nn2-c2ccccc2)cc1` had a melting point of 128 to 130 °C. As for `O=c1c2cccc3c2c(cn1C1CN2CCC1CC2)CC3` (racemic), the figure is 146 to 147 °C; as for `COc1cc(Cc2cnc(N)nc2N)cc(C#Cc2ccc3ccccc3c2)c1OC`, 152 to 155 °C. As for `COC(=O)c1oc2cc(S)ccc2c1C`, the figure is 118 to 120 °C; as for `NCC1CCc2[nH]c3cc(Cl)c(Cl)cc3c2C1` (centres undefined), 156 to 158 °C; as for `Cc1cn(-c2cccc(O)c2)cn1`, 203 to 205 °C.

`NC(=O)OC[C@@H]1[C@H](NC(=O)/C(=N\OCC(=O)O)c2csc(N)n2)C(=O)N1S(=O)(=O)O` gave a melting point of 207 °C.

For `Fc1ccc(-c2ncn(C3CCNCC3)c2-c2ccnc(Oc3ccc4c(c3)OCO4)n2)cc1`, the melting point lay within 131 to 132 °C.

With `Cc1cc(C)c2c(c1C)OC1(CCN(C)CC1)C2c1ccc(C(C)C)cc1` (centres undefined), the melting point was in the range of 63 to 64 °C. As for `CCCn1ccc2c(NCCc3ccc(O)cc3)cccc2c1=O`, the figure is 170 to 171 °C; as for `CN1CCN(c2cc3nc(C(C)(C)C)sc3cc2NC(=S)N2CCCCC2)CC1`, 202 to 206 °C. As for `C=C(C)CCOc1ccc([N+](=O)[O-])cc1Cl`, the figure is 38 to 39 °C; as for `COc1cccc2oc(-c3ccc(F)cc3)cc(=O)c12`, 178 °C. `CC1(c2ccc(S(N)(=O)=O)cc2)Cc2cc(OCC(=O)O)c(Cl)c(Cl)c2C1=O` (centres undefined) displayed a melting point of 258 to 260 °C.

As to `Cc1ccc2nc(NC3=NCCN3)[nH]c2c1`, the melting point was 264 to 266 °C.

In turn, `CN=C(NC#N)C1=CC(CF)(CF)Oc2ccc([N+](=O)[O-])cc21` yielded a melting point of 259 to 261 °C. As for `COc1cc2c(cc1O)CCN(Cc1ccccc1)C2`, the figure is 134 to 135 °C; as for `COC(=O)C1=C(CCc2ccccc2)NC(CC(=O)N2CCN(CC(=O)N3CCCC3)CC2)=C(C(=O)OC)C1c1c(Cl)cccc1Cl` (centres undefined), 180 to 184 °C. As for `CC1(C)OC(=S)Nc2ccc(-c3cc(F)cc(Br)c3)cc21`, the figure is 221 to 222 °C.

As to `Cc1cccc(NC(=O)c2ccccc2)c1Cl`, the melting point was in the range of 125 to 126 °C.

In the case of `O=S(=O)(O)CCCNC1CCCCCC1`, the melting point lay within 341 to 343 °C. As for `Cc1c(C=O)c2ccccc2n1C`, the figure is 129 °C; as for `C[Si](C)(C)C1([Si](C)(C)C)c2ccccc2-c2ccccc21`, 110 to 112 °C; as for `Cc1c(C(F)(F)F)noc1N`, 53 to 54 °C. `COc1ccc(OC)c2c(C#C[Si](C)(C)C)c3ccccc3nc12` displayed a melting point of 110 to 111 °C. As for `O=C(/C=C/C=C/c1ccccc1[N+](=O)[O-])NCCCCCC(=O)NO`, the figure is 131 to 133 °C. As for `COC(=O)c1sccc1NC(=O)CC#N`, the figure is 146 °C. As for `O=C(O)C1=Cc2cc(Oc3ccc(C(F)(F)F)cc3)cc(Cl)c2OC1C(F)(F)F` (centres undefined), the figure is 224 to 226 °C; as for `NC(=O)Cc1cc(Oc2ccc3c(ccn3C(=O)Nc3ccc(N4CCN(C5CC5)CC4)c(C(F)(F)F)c3)c2)ncn1`, 236 to 240 °C. In turn, `OCC(O)COc1noc2ccc(Cl)cc12` (centres undefined) had a melting point of 61 to 62 °C.

`N#Cc1ccc(S(=O)(=O)Nc2cccnc2Nc2ccccc2)cc1` had a melting point of 155 to 157 °C.

The compound `CCOC(=O)c1ncc2[nH]c3ccc(Br)cc3c2c1C` returned a melting point of 231 to 232 °C. `Cc1cccc(C)c1NC(=O)CN1CCN(CCC(c2ccc(F)cc2)c2ccc(F)cc2)C(C(N)=O)C1` (centres undefined) came in with a melting point of 143 °C. As for `CCOC(=O)C1=C(C)NC(CN2C(=O)c3ccccc3C2=O)=C(C(=O)OCC)C1c1ccc(F)cc1` (centres undefined), the figure is 144 to 145 °C.
